Measured values taken from patent publication US20070003480A1, “Liposomal composition comprising haptotactic peptides” (Hapto Biotech, Inc., priority 2002, published 2007).
Entries after “also recorded” stand apart in the source; their conditions may differ.

Assays:
[1] = test system: bovine aortic endothelial cells; assay: Haptide-mediated Doxil liposome uptake by bovine aortic endothelial cells, fluorescence microscopy; assay type: cell-based; conditions: Doxil (doxorubicin-loaded) liposomes; FIG. 5
Experimental: (§1) Human fibroblasts or bovine aortic endothelial cells were seeded and grown in CO2 incubator for 24 hours in a 4-chamber cell culture coverslip slide (source) used for microscopy. Then, they were exposed to either free ^FITCHaptide or to a ^FITCHaptotactic Peptide-Liposomal composition. Two liposome types were examined, namely liposomes composed of hydrogenated phosphatidyl serine, PEG and cholesterol, containing the fluorescent dye Rhodamine; and clinical grade liposomes containing the anti-cancer drug doxorubicin (Doxil liposomes). Both rhodamine and doxorubicin are fluorescent compounds. Thus, the liposome penetration and distribution within cells could be tracked by fluorescence microscopy or FACS. Typically, 20 μl of fluorescent Haptotactic Peptide-Liposomal composition were mixed with 180 μl PBS and added to the cell chamber. Incubation was continued for up to 1 hour at 37 or 4° C. The incubation was stopped at different time points by two subsequent washes with PBS, followed by fixation with 500 μl of 4% formaldehyde for 1 hr. The samples were then washed again with PBS. Coverslips with the fixed cells were covered by PBS-glycerol 80%, DABCO 2%, and an additional coverslip for microscopic examination.

BAEC = assay: Cell adhesion (haptotaxis) assay, Sepharose bead-bound ligand; assay type: cell-based, bovine; conditions: ligand bound to Sepharose beads
Experimental: (§2) The attachment of Sepharose beads (SB)-ligand to cells in nearly confluent cultures grown on plastic was measured as previously described (Gorodetsky R. et al. 1998. J Lab Clin Med 131, 269-280; Gorodetsky R. et al. 1999. J Invest Dermatol 112:866-872). Essentially, about 20-150 μl of suspended (50% v/v) SB-Haptide or SB-fibrinogen were added to near confluent cell cultures in 6-24 well plates and dispersed by gentle shaking for 1 min. The plates were then incubated for up to 4 days. After one day the number of SB tethered to cell layer was counted with an inverted phase or Numarsky microscopy. Typically, ˜300 SB (but not less then 200) were counted in each well, and the ratio of the number of SB attached to the cells in each well, was calculated relative to the total number of SB. At least 3 wells were measured for each variant and each experiment was repeated at least 3 times.

HF = assay: as above; assay type: cell-based, human; conditions: ligand bound to Sepharose beads
Experimental: as §2

human fibroblasts (HF) = assay: Uptake of FITC-labelled peptides by cells, confocal laser fluorescence microscopy; assay type: cell-based; conditions: visual score (0-4) from fluorescence micrographs; FITC-labelled ligand 100 μg/ml (40 μM), 1 h, 37° C.
Experimental: Fluorescent microscopy was carried out with Olympus or Nikon fluorescence microscopes. Confocal laser microscopy was done with a computerized Zeiss Confocal Axiomate microscope (LSM410) with multiple excitation wavelengths. Peptides were tagged with fluorescein isothiocyanate (FITC) for visualization. For examination of ^FITCpeptides uptake by human fibroblasts (HF) the cells were grown on glass coverslips to near confluence and then incubated with 100 μg/ml (40 μM) ^FITCpeptides at 37° C. After 1 h, the cells were washed and fixed in 0.5% buffered glutaraldehyde. Coverslips with the cells were placed on a microscope slide with PBS-glycerol 80% with 2% DABCO and examined. The representative fields of cells were visualized by Numarski optics and confocal scans of cell fluorescence intensity in 1 μm slices were recorded at the FITC wavelength (excitation 488 nm, emission 515 nm) and later reconstructed. Uptake of ^FITCligand by HF was scored visually (0-4). The fluorescent haptotactic peptides were clearly seen taken up by the HF cells, and the nuclei remained relatively free of ^FITCHaptide (FIGS. 1A & B). […] By contrast, the uptake of the control ^FITCCα peptide by the cells was negligible.

Human fibroblasts = assay: Haptide-mediated liposome uptake by human fibroblasts, fluorescence microscopy; assay type: cell-based; conditions: for liposome uptake into the cytoplasm of fibroblasts: rhodamine-loaded liposomes, FIG. 4
Experimental: as §1

[2] = Particle size by dynamic light scattering; assay type: physicochemical; conditions: Haptide solution 1 mg/mL, 0.45 μm filtered, 25° C., mean of three measurements
Experimental: It has been previously observed by gel filtration that haptides tend to form aggregates (Gorodetsky R, Vexler A, Shamir M, An J, Levdansky L, Shimeliovich I, Marx G. Exp Cell Res. 287:116-129 (2003). A solution of the Haptide preCγ (1 mg/mL) was passed through a 0.45 μm filter and then measured by dynamic light scattering at 25° C. The average particle size (a mean value of three measurements) was ˜145 nm (FIG. 3), showing that such particle is an aggregate of few hundreds of preCγ monomers.
Similarly, Doxil liposomes were measured and observed to have a mean diameter of 80 nm. However, when the preCγ-liposomal composition was formed, the preCγ Haptides aggregates disappeared in correlation with the liposome/Haptide weight ratio (FIG. 3). […] At a doxil/haptide weight ratio of >10^−2, the almost totally all the Haptides aggregates were solubilized within the liposomes as indicated by the disappearance of larger Haptide particles, forming the haptotactic-peptide liposomal composition.

Substance | liposome uptake into endothelial cells [1] | % Haptotaxis (BAEC, 1 day) (BAEC) | % Haptotaxis (HF, 1 day) (HF) | Cell Uptake (HF) (human fibroblasts (HF)) | concentration-dependent liposome uptake by human fibroblasts (Human fibroblasts; Doxorubicin-loaded liposomes, varying Haptide concentration, FIG. 6) | liposome uptake into the cytoplasm of fibroblasts (Human fibroblasts) | average particle size [2]
KGSWYSMRKMSMKIRPFFPQQ (Equivalent to the c-terminus of fibrinogen beta-chain) [Cβ] | facilitated liposome uptake | 100% | 100% | +4 | increased liposome uptake; also recorded: directly correlated to the Haptide (Cβ) concentration | facilitated liposome uptake | 
fibrinogen |  | 100% | 100% | +2 |  |  | 
RGADYSLRAVRMKIRPLTVTQ (Equivalent to the c-terminus of fibrinogen alphaE chain) [CαE] | efficient in enhancing doxorubicin-liposome (Doxil) uptake | 75% | 60% | +3 |  | Low induction | 
KTRWYSMKKTTMKIIPFNRL (Equivalent to the c-terminus of fibrinogen pre-gama chain) [preCγ] | facilitated liposome uptake |  |  |  |  | facilitated liposome uptake | ~145 nm
